Laboratory results published in patent US12312359B2 (Vitae Pharmaceuticals, LLC, priority 2016, dated 2025).
pEC50, pIC50: −log10 of the molar value.

What was measured:
[1] = system: human acute monocytic leukemia cell line MV-4-11; test: Assay 2: cell proliferation assay (ATP quantitation, CellTiter-Glo), MV-4-11; format: cell-based; details: MV-4-11 cells
Summary of the method: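 MV-4-11 cells, 1.67×10^4 per well in medium with 10% FBS, were exposed to compound for 72 h at 37° C., 5% CO2; HL-60 cells served as toxicity control. Proliferation read as ATP content by CellTiter-Glo luminescence.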

[2] = target: T1, biotinylated wild-type menin and MLL-AF9 fusion protein (menin/MLL binding) (Homo sapiens, UniProt O00255); test: Assay 1: menin/MLL binding AlphaLISA assay, wild-type menin; details: Table 30; column head does not say wild-type or mutated menin
T1 construct: made in house; host or cells: menin: E. coli; MLL-AF9-FLAG: HEK293 cells, used as cleared lysate
T1 sequence (O00255 1-610): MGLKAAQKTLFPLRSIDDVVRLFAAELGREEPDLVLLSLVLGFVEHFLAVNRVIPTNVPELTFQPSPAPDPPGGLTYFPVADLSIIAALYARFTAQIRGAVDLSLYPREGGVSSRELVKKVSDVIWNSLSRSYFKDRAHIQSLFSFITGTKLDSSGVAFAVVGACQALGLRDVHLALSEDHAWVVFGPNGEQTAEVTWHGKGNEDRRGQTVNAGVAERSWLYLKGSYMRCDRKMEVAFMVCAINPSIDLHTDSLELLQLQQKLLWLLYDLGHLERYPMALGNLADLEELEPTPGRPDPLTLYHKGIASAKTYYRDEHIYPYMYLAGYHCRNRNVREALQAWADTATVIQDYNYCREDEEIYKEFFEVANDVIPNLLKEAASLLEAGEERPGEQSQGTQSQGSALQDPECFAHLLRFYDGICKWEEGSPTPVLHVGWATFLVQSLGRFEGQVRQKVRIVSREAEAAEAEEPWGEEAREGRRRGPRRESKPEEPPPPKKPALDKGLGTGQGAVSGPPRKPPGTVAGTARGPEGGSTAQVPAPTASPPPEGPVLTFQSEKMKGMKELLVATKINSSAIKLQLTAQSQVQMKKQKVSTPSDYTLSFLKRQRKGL
Summary of the method: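 Compound was preincubated 30 min at room temperature with biotinylated menin (5 nM) and MLL-AF9-FLAG lysate from HEK293 cells, pH 7.4 buffer with 5% DMSO and DTT. Bead-based Alpha signal after 60 min with streptavidin donor and anti-FLAG acceptor beads; four-parameter logistic fit gave IC50.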

pEC50 ([1]; Homo sapiens, MV4-11, 72 h)	pIC50 [2]	pEC50 ([1]; 72 h)	Compound
> 7.00	> 7.00	–	COCCn1c(=O)[nH]c2cc(CN3CCC4(CCN(c5ncncc5Oc5ccc(F)cc5-c5cncnc5C(C)C)C4)C3)ccc21 (stereo not drawn) [Example 131, 5-((7-(5-(4-fluoro-2-(4-isopropylpyrimidin-5-yl)phenoxy)pyrimidin-4-yl)-2,7-diazaspiro[4.4]nonan-2-yl)methyl)-1-(2-methoxyethyl)-1,3-dihydro-2H-benzo[d]imidazol-2-one]
6.00 to 7.00	> 7.00	–	CC(C)N(C)C(=O)c1cc(F)ccc1Oc1cncnc1N1CC2(CCN(C[C@H]3CC[C@H](NC(=O)OC(C)(C)C)CC3)CC2)C1 [Example 94, tert-butyl ((1r,4r)-4-((2-(5-(4-fluoro-2-(isopropyl(methyl)carbamoyl)phenoxy)pyrimidin-4-yl)-2,7-diazaspiro[3.5]nonan-7-yl)methyl)cyclohexyl) carbamate]
> 7.00	> 7.00	–	CC(C)c1ccccc1-c1cc(F)ccc1Oc1cncnc1N1CCC2(CCN(Cc3ccc4[nH]c(=O)[nH]c4c3)C2)C1 (single isomer, unassigned) [Example 41A, 5-((7-(5-((5-fluoro-2′-isopropyl-[1,1′-biphenyl]-2-yl)oxy)pyrimidin-4-yl)-2,7-diazaspiro[4.4]nonan-2-yl)methyl)-1H-benzo[d]imidazol-2(3H)-one]
–	> 7.00	> 7.00	CC(C)n1nccc1-c1cc(F)ccc1Oc1cncnc1N1CCC2(CCN(Cc3ccc4[nH]c(=O)[nH]c4c3)C2)C1 (single isomer, unassigned) [Example 197B, 5-((7-(5-(4-fluoro-2-(1-isopropyl-1H-pyrazol-5-yl)phenoxy)pyrimidin-4-yl)-2,7-diazaspiro[4.4]nonan-2-yl)methyl)-1,3-dihydro-2H-benzo[d]imidazol-2-one]
6.00 to 7.00	> 7.00	–	CCN(C(=O)C(C)C)c1cc(F)ccc1Oc1cncnc1N1CC2(CCN(CC3CCC(F)(F)CC3)C2)C1 [Example 137, N-(2-((4-(6-((4,4-difluorocyclohexyl)methyl)-2,6-diazaspiro[3.4]octan-2-yl)pyrimidin-5-yl)oxy)-5-fluorophenyl)-N-ethylisobutyramide]
–	> 7.00	6.00 to 7.00	5-((7-(5-(4-fluoro-2-(3-fluoro-3-methylbutyl)phenoxy) pyrimidin-4-yl)-2,7-diazaspiro[4.4]nonan-2-yl)methyl)-1H-benzo[d]imidazol-2(3H)-one [Example 35]
6.00 to 7.00	> 7.00	–	CC(C)N(C)C(=O)c1cc(F)ccc1Oc1cncnc1N1CC2(CC(NC3CCOCC3)C2)C1 [Example 92, 5-fluoro-N-isopropyl-N-methyl-2-((4-(6-((tetrahydro-2H-pyran-4-yl)amino)-2-azaspiro[3.3]heptan-2-yl)pyrimidin-5-yl)oxy)benzamide]
–	> 7.00	≤ 6.00	CC(C)N(C(=O)c1cc(F)ccc1Oc1cncnc1N1CCC2(CC(N)C(Cc3ccc4[nH]c(=O)[nH]c4c3)C2)C1)C(C)C (single isomer, unassigned) [Example 25, 2-((4-(7-amino-8-((2-oxo-2,3-dihydro-1H-benzo[d]imidazol-5-yl)methyl)-2-azaspiro[4.4]nonan-2-yl)pyrimidin-5-yl)oxy)-5-fluoro-N,N-diisopropylbenzamide]
≤ 6.00	> 7.00	–	N#Cc1ccc2c(CN3CCC4(CCN(c5ncncc5Oc5ccc(F)cc5OCC5CC5)C4)C3)c[nH]c2c1 (stereo not drawn) [Example 201, 3-((7-(5-(2-(cyclopropylmethoxy)-4-fluorophenoxy)pyrimidin-4-yl)-2,7-diazaspiro[4.4]nonan-2-yl)methyl)-1H-indole-6-carbonitrile]
≤ 6.00	> 7.00	–	CCC(O)(CC)c1cc(F)ccc1Oc1cncnc1N1CCC2(CCN(Cc3ccc4[nH]c(=O)[nH]c4c3)C2)C1 (stereo not drawn) [Example 34, 5-((7-(5-(4-fluoro-2-(3-hydroxypentan-3-yl)phenoxy)pyrimidin-4-yl)-2,7-diazaspiro[4.4]nonan-2-yl)methyl)-1,3-dihydro-2H-benzo[d]imidazol-2-one]
–	> 7.00	6.00 to 7.00	CC(C)N(C(=O)c1cc(F)ccc1Oc1cncnc1N1CCC2(CC(Cc3ccc(F)cc3)N(CCO)C2)C1)C(C)C (single isomer, unassigned) [Example 26A, 5-fluoro-2-((4-(8-(4-fluorobenzyl)-7-(2-hydroxyethyl)-2,7-diazaspiro[4.4]nonan-2-yl)pyrimidin-5-yl)oxy)-N,N-diisopropylbenzamide]
> 7.00	> 7.00	–	CC(C)N(C(=O)c1cc(F)ccc1Oc1cncnc1N1CCC2(CCN(Cc3ccc4[nH]c(=O)[nH]c4c3)C2)C1)C(C)C (single isomer, unassigned) [Example 1A, 5-fluoro-N,N-diisopropyl-2-((4-(7-((2-oxo-2,3-dihydro-1H-benzo[d]imidazol-5-yl)methyl)-2,7-diazaspiro[4.4]nonan-2-yl)pyrimidin-5-yl)oxy)benzamide]
–	> 7.00	> 7.00	Cn1c(-c2cc(F)ccc2Oc2cncnc2N2CCC3(CCN(Cc4ccc5c(c4)[nH]c(=O)n5CCO)C3)C2)c(C2CC2)ccc1=O (single isomer, unassigned) [Example 81B, 5-((7-(5-(2-(3-cyclopropyl-1-methyl-6-oxo-1,6-dihydropyridin-2-yl)-4-fluorophenoxy)pyrimidin-4-yl)-2,7-diazaspiro[4.4]nonan-2-yl)methyl)-1-(2-hydroxyethyl)-1H-benzo[d]imidazol-2(3H)-one]
> 7.00	> 7.00	–	CN(C)C(=O)c1ccc(-c2cc(F)ccc2Oc2cncnc2N2CCC3(CCN(Cc4ccc5[nH]c(=O)[nH]c5c4)C3)C2)c(C2CC2)c1 (stereo not drawn) [Example 45, 2-cyclopropyl-5′-fluoro-N,N-dimethyl-2′-((4-(7-((2-oxo-2,3-dihydro-1H-benzo[d]imidazol-5-yl)methyl)-2,7-diazaspiro[4.4]nonan-2-yl)pyrimidin-5-yl)oxy)-[1,1′-biphenyl]-4-carboxamide]
> 7.00	> 7.00	–	CCN(C(=O)c1cc(F)ccc1Oc1cncnc1N1CCC2(CCN(Cc3ccc4c(c3)[nH]c(=O)n4CCO)C2)C1)C(C)C (stereo not drawn) [Example 4, N-ethyl-5-fluoro-2-((4-(7-((1-(2-hydroxyethyl)-2-oxo-2,3-dihydro-1H-benzo[d]imidazol-5-yl)methyl)-2,7-diazaspiro[4.4]nonan-2-yl)pyrimidin-5-yl)oxy)-N-isopropylbenzamide]
> 7.00	> 7.00	–	CC(C)(O)c1ccccc1-c1cc(F)ccc1Oc1cncnc1N1CCC2(CCN(Cc3ccc4[nH]c(=O)[nH]c4c3)C2)C1 (stereo not drawn) [Example 63, 5-((7-(5-((5-fluoro-2′-(2-hydroxypropan-2-yl)-[1,1′-biphenyl]-2-yl)oxy)pyrimidin-4-yl)-2,7-diazaspiro[4.4]nonan-2-yl)methyl)-1H-benzo[d]imidazol-2(3H)-one]

Compound	pEC50 ([1]; Homo sapiens, MV4-11, 72 h)	pIC50 [2]	pEC50 ([1]; 72 h)
2-((4-(7-(((1r,4r)-4- (3,3- dimethylureido)cyclo- hexyl) methyl)- 2,7-diazaspiro [3.5]nonan-2- yl)pyrimidin-5- yl)oxy)-5-fluoro- N,N-diisopropyl benzamide [Example 97]	–	> 7.00	6.00 to 7.00
O=C(c1cc(F)ccc1Oc1cncnc1N1CCC2(CCN(Cc3ccc4[nH]c(=O)[nH]c4c3)C2)C1)N1C2CCC1CC2 (stereo not drawn) [Example 212, 5-((7-(5-(2-((1s,4s)-7-azabicyclo[2.2.1]heptane-7-carbonyl)-4-fluorophenoxy)pyrimidin-4-yl)-2,7-diazaspiro [4.4]nonan-2-yl)methyl)-1,3-dihydro-2H-benzo[d]imidazol-2-one]	6.00 to 7.00	> 7.00	–
